Experiments:
[1] = target: T1, 5-hydroxytryptamine receptor 1A (Rattus norvegicus, UniProt P19327); experiment: Binding affinity at [3H]8-OH-DPAT-Labeled 5-hydroxytryptamine 1A receptor sites in rat brain hippocampal membranes; format: cell membranes
T1 sequence (P19327 whole entry): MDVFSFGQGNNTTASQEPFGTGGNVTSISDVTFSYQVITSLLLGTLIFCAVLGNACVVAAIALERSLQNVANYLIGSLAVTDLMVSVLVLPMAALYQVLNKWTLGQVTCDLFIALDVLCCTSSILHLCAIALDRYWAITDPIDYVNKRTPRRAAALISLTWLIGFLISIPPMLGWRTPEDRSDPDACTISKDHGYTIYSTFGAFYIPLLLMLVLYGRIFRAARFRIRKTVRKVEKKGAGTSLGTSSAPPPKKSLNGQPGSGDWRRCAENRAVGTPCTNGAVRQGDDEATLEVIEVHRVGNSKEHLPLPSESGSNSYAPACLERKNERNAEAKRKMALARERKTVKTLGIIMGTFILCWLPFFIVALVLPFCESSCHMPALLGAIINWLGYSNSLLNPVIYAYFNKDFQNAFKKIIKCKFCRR

[2] = target: T2, 5-hydroxytryptamine receptor 1A (Rattus norvegicus) (UniProt P19327); experiment: Binding affinity at [3H]8-OH-DPAT-Labeled 5-hydroxytryptamine 1A receptor sites in rat brain hippocampal membranes expressed as Hill values; format: cell membranes
T2 sequence (whole entry): T1 sequence (P19327 whole entry)

## COc1cccc2c1CC(NCCCCc1ccccc1)CC2 (stereo not drawn)
[1]
  Ki: 5.6 nM
[2]
  Hill coefficient: 0.92

## CCCN(C)C1CCc2cccc(OC)c2C1 (stereo not drawn)
[1]
  Ki: 2.1 nM
[2]
  Hill coefficient: 0.91

## c1ccc(CCCNC2CCc3cccc(OCc4ccccc4)c3C2)cc1 (stereo not drawn)
[1]
  Ki: 10 nM
[2]
  Hill coefficient: 0.91

## Oc1cccc2c1CC(NCCCc1ccccc1)CC2 (stereo not drawn)
[1]
  Ki: 1.9 nM
[2]
  Hill coefficient: 0.87

## COc1cccc2c1CC(N)CC2 (stereo not drawn)
[1]
  Ki: 53 nM
[2]
  Hill coefficient: 0.77

## CCCN(CCC)C1CCc2cccc(O)c2C1 (stereo not drawn)
[2]
  Hill coefficient: 1.01

## COc1cccc2c1CC(NCCCc1ccccc1)CC2 (stereo not drawn)
[1]
  Ki: 2.5 nM
[2]
  Hill coefficient: 0.83

## COc1cccc2c1CC(N(C)Cc1ccccc1)CC2 (stereo not drawn)
[1]
  Ki: 78 nM
[2]
  Hill coefficient: 0.91

## COc1cccc2c1CC(N(C)CCc1ccccc1)CC2 (stereo not drawn)
[1]
  Ki: 7.9 nM
[2]
  Hill coefficient: 0.9

## CCCNC1CCc2ccccc2C1 (stereo not drawn)
[1]
  Ki: 19 nM
[2]
  Hill coefficient: 0.74

## COc1cccc2c1CC(NCCc1ccccc1)CC2 (stereo not drawn)
[1]
  Ki: 44 nM
[2]
  Hill coefficient: 0.85

## CCCNC1CCc2cccc(OC)c2C1 (stereo not drawn)
[1]
  Ki: 2.3 nM
[2]
  Hill coefficient: 0.8

## CCCN(CCC)C1CCc2cccc(OC)c2C1 (stereo not drawn)
[2]
  Hill coefficient: 0.78

## c1ccc(CCCNC2CCc3ccccc3C2)cc1 (stereo not drawn)
[1]
  Ki: 13 nM
[2]
  Hill coefficient: 1.06

## COc1cccc2c1CC(N(C)CCCc1ccccc1)CC2 (stereo not drawn)
[1]
  Ki: 2 nM
[2]
  Hill coefficient: 0.94

From ChEMBL document CHEMBL1124332, “2-(Alkylamino)tetralin derivatives: interaction with 5-HT1A serotonin binding sites” (J Med Chem, 1989)
